Experimental data taken from PubChem BioAssay AID1259411 (Chemical Carcinogenesis Research Information System (CCRIS), 2018).
Activity calls are given as the source filed them. The rule behind the calls is not given here.

Tested on: rodent carcinogenicity bioassays, tumor incidence
Test: CCRIS carcinogenicity studies
In short: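 NCI-built, expert-reviewed records of carcinogenicity and related test outcomes (mutagenicity, tumor promotion/inhibition) compiled from published and report sources, historical span 1985-2011, not updated.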

[1] = Species: RAT, Route: ORAL, Tumor Site: Type of Lesion: LIVER

SMILES: COc1cc2c(c3oc4cccc(O)c4c(=O)c13)[C@@H]1C=CO[C@@H]1O2
- carcinogen call (Species: MOUSE, Route: ORAL, Tumor Site: Type of Lesion: LUNG): active; positive
- carcinogen call (Species: MOUSE, Strain/Sex: DBF1/FEMALE, Route: ORAL, Dose: 0, 30, 120 PPM IN DIET FOR 55 OR 51 WK, STUDY DURATION: 73 WK, Dose: 0, 30, 120 PPM IN DIET FOR 55 OR 51 WK, STUDY DURATION: 73 WK, Tumor Site: Type of Lesion: LIVER: HEMANGIOENDOTHELIOMA, ANGIOSARCOMA, LUNG: ADENOMA, INTEGUMENTARY SYSTEM (SUBCUTANEOUS TISSUE): ANGIOSARCOMA, Tumor Site: Type of Lesion: LIVER: HEMANGIOENDOTHELIOMA, ANGIOSARCOMA, LUNG: ADENOMA, INTEGUMENTARY SYSTEM (SUBCUTANEOUS TISSUE): ANGIOSARCOMA): active; positive
- carcinogen call (Species: RAT, Route: DERMAL, Tumor Site: Type of Lesion: INTEGUMENTARY SYSTEM (SKIN)): active; positive
- carcinogen call [1]: active; positive
- carcinogen call (Species: RAT, Route: SUBCUTANEOUS, Tumor Site: Type of Lesion: INJECTION SITE): active; positive

SMILES: NNCCc1ccccc1
- carcinogen call (Species: MOUSE, Strain/Sex: SWISS/MALE, Route: ORAL, Dose: 0, 0.15% IN WATER, Tumor Site: Type of Lesion: BLOOD VESSELS: ANGIOMA, ANGIOSARCOMA, LUNG: ADENOMA, ADENOCARCINOMA): active; positive
- carcinogen call (Species: RAT, Strain/Sex: SPRAGUE-DAWLEY/MALE, Route: ORAL, Dose: 0, 0.02% IN DIET FOR 68-87 WK (STUDY DURATION: 87 WK)): inactive; negative

SMILES: CC1=C(C)C(=O)C(C(CCCCCC(=O)O)c2ccccc2)=C(C)C1=O (stereo not drawn)
- carcinogen call (Species: RAT, Strain/Sex: F344/FEMALE, Route: ORAL, Dose: 0, 3, 10, 30, 100 MG/KG/D IN THE DIET FOR 52 WK (STUDY DURATION: 52 WK), Dose: 0, 3, 10, 30, 100 MG/KG/D IN THE DIET FOR 52 WK (STUDY DURATION: 52 WK)): inactive; negative
- carcinogen call (Species: RAT, Strain/Sex: F344/MALE, Route: ORAL, Dose: 0, 3, 10, 30, 100 MG/KG/D IN THE DIET FOR 52 WK (STUDY DURATION: 52 WK), Dose: 0, 3, 10, 30, 100 MG/KG/D IN THE DIET FOR 52 WK (STUDY DURATION: 52 WK)): inactive; negative

SMILES: CC(=O)Nc1nc(-c2ccc([N+](=O)[O-])o2)cs1
- carcinogen call (Species: HAMSTER, Route: ORAL, Tumor Site: Type of Lesion: FORESTOMACH, URINARY BLADDER): active; positive
- carcinogen call (Species: MOUSE, Route: ORAL, Tumor Site: Type of Lesion: FORESTOMACH, HEMATOPOIETIC SYSTEM (LEUKEMIA), LYMPHATIC SYSTEM: LYMPHATIC LEUKEMIA, Tumor Site: Type of Lesion: FORESTOMACH, HEMATOPOIETIC SYSTEM (LEUKEMIA), LYMPHATIC SYSTEM: LYMPHATIC LEUKEMIA): active; positive
- carcinogen call (Species: RAT, Route: ORAL, Tumor Site: Type of Lesion: MAMMARY GLAND, LUNG, SALIVARY GLAND, Tumor Site: Type of Lesion: MAMMARY GLAND, LUNG, SALIVARY GLAND): active; positive

SMILES: COc1cc2c(c3oc(=O)c4c(c13)CCC4=O)[C@@H]1CCO[C@@H]1O2
- carcinogen call (Species: HUMAN, Route: ORAL, Tumor Site: Type of Lesion: LIVER): active; positive
- carcinogen call [1]: active; positive

SMILES: O=C(O)CCCCCCCCC(=O)O
- carcinogen call (Species: RABBIT, Strain/Sex: NEW ZEALAND/FEMALE, Route: ORAL, Dose: 0, 750, 1000 MG/KG/BW IN DIET FOR 6 MO (STUDY DURATION: 181 D), Dose: 0, 750, 1000 MG/KG/BW IN DIET FOR 6 MO (STUDY DURATION: 181 D)): inactive; negative
- carcinogen call (Species: RABBIT, Strain/Sex: NEW ZEALAND/MALE, Route: ORAL, Dose: 0, 750, 1000 MG/KG/BW IN DIET FOR 6 MO (STUDY DURATION: 181 D), Dose: 0, 750, 1000 MG/KG/BW IN DIET FOR 6 MO (STUDY DURATION: 181 D)): inactive; negative
- carcinogen call (Species: RAT, Strain/Sex: WISTAR/FEMALE, Route: ORAL, Dose: 0, 500, 1000 MG/KG/BW IN DIET FOR 6 MO (STUDY DURATION: 181 D), Dose: 0, 500, 1000 MG/KG/BW IN DIET FOR 6 MO (STUDY DURATION: 181 D)): inactive; negative
- carcinogen call (Species: RAT, Strain/Sex: WISTAR/MALE, Route: ORAL, Dose: 0, 500, 1000 MG/KG/BW IN DIET FOR 6 MO (STUDY DURATION: 181 D), Dose: 0, 500, 1000 MG/KG/BW IN DIET FOR 6 MO (STUDY DURATION: 181 D)): inactive; negative

SMILES: O=C1CCc2c1cc1c3c2ccc2cccc(c23)C1
- carcinogen call (Species: MOUSE, Strain/Sex: T.O./MALE, FEMALE, Route: DERMAL, Dose: 0, 50 UG IN TOLUENE SOLUTION 2 D/WK FOR 39 OR 50 WK (STUDY DURATION: 2 YR), Tumor Site: Type of Lesion: SKIN: PAPILLOMA OR CARCINOMA): active; positive

SMILES: O=S(=O)(O)OCc1ccc2ccc3cccc4ccc1c2c34
- carcinogen call (Species: RAT, Strain/Sex: SPRAGUE-DAWLEY/FEMALE, Route: SUBCUTANEOUS, Dose: 0, 0.2 UMOL IN 0.1 ML SESAME OIL:DMSO (9:1) 1/2 D FOR 20 DOSES (STUDY DURATION: 52 WK), Tumor Site: Type of Lesion: INJECTION SITE: SARCOMA): active; positive

SMILES: COc1cc(-c2ccc(N/N=C3/C(=O)c4c(N)cc(S(=O)(=O)O)cc4C=C3S(=O)(=O)O)c(OC)c2)ccc1N/N=C1/C(=O)c2c(N)cc(S(=O)(=O)O)cc2C=C1S(=O)(=O)O
- carcinogen call (Species: RAT, Strain/Sex: F344/FEMALE, Route: ORAL, Dose: 0, 630, 1250, 2500 PPM IN DRINKING WATER FOR 22 MO (STUDY DURATION: 22 MO), Dose: 0, 630, 1250, 2500 PPM IN DRINKING WATER FOR 22 MO (STUDY DURATION: 22 MO), Tumor Site: Type of Lesion: CLITORAL GLAND: ADENOMA, CARCINOMA, LIVER: NEOPLASTIC NODULE OR HEPATOCELLULAR CARCINOMA, ORAL CAVITY (TONGUE OR PHARYNX, Tumor Site: Type of Lesion: CLITORAL GLAND: ADENOMA, CARCINOMA, LIVER: NEOPLASTIC NODULE OR HEPATOCELLULAR CARCINOMA, ORAL CAVITY (TONGUE OR PHARYNX): active; positive
- carcinogen call (Species: RAT, Strain/Sex: F344/MALE, Route: ORAL, Dose: 0, 630, 1250, 2500 PPM IN DRINKING WATER FOR 22 MO (STUDY DURATION: 22 MO), Dose: 0, 630, 1250, 2500 PPM IN DRINKING WATER FOR 22 MO (STUDY DURATION: 22 MO), Tumor Site: Type of Lesion: LARGE INTESTINE: ADENOMATOUS POLYP OR ADENOCARCINOMA, LIVER: NEOPLASTIC NODULE OR HEPATOCELLULAR CARCINOMA, ORAL CAVITY, Tumor Site: Type of Lesion: LARGE INTESTINE: ADENOMATOUS POLYP OR ADENOCARCINOMA, LIVER: NEOPLASTIC NODULE OR HEPATOCELLULAR CARCINOMA, ORAL CAVITY): active; positive

SMILES: CCOc1ccc(NC(=O)CC(C)O)cc1 (stereo not drawn)
- carcinogen call (Species: MOUSE, Strain/Sex: B6C3F1/FEMALE, Route: ORAL, Dose: 0, 0.75, 1.5% IN BASAL DIET FOR 76 WK FOLLOWED BY BASAL DIET ONLY FOR 8 WK (STUDY DURATION: 84 WK), Dose: 0, 0.75, 1.5% IN BASAL DIET FOR 76 WK FOLLOWED BY BASAL DIET ONLY FOR 8 WK (STUDY DURATION: 84 WK)): inactive; negative
- carcinogen call (Species: MOUSE, Strain/Sex: B6C3F1/MALE, Route: ORAL, Dose: 0, 0.75, 1.5% IN BASAL DIET FOR 76 WK FOLLOWED BY BASAL DIET ONLY FOR 8 WK (STUDY DURATION: 84 WK), Dose: 0, 0.75, 1.5% IN BASAL DIET FOR 76 WK FOLLOWED BY BASAL DIET ONLY FOR 8 WK (STUDY DURATION: 84 WK), Tumor Site: Type of Lesion: KIDNEY: RENAL CELL ADENOMA, RENAL CELL CARCINOMA): active; positive

SMILES: CC(=O)N(C)C
- carcinogen call (Species: MOUSE, Strain/Sex: CRL:CD-1 (ICR)BR/FEMALE, Route: INHALATION, Dose: 0, 25, 100, 350 PPM 6 HR/D 5 D/WK FOR 18 MO (STUDY DURATION: 18 MO), Dose: 0, 25, 100, 350 PPM 6 HR/D 5 D/WK FOR 18 MO (STUDY DURATION: 18 MO)): inactive; negative
- carcinogen call (Species: MOUSE, Strain/Sex: CRL:CD-1 (ICR)BR/MALE, Route: INHALATION, Dose: 0, 25, 100, 350 PPM 6 HR/D 5 D/WK FOR 18 MO (STUDY DURATION: 18 MO), Dose: 0, 25, 100, 350 PPM 6 HR/D 5 D/WK FOR 18 MO (STUDY DURATION: 18 MO)): inactive; negative
- carcinogen call (Species: RAT, Strain/Sex: CRL:CD BR/FEMALE, Route: INHALATION, Dose: 0, 25, 100, 350 PPM 6 HR/D 5 D/WK FOR 2 YR (STUDY DURATION: 2 YR), Dose: 0, 25, 100, 350 PPM 6 HR/D 5 D/WK FOR 2 YR (STUDY DURATION: 2 YR)): inactive; negative
- carcinogen call (Species: RAT, Strain/Sex: CRL:CD BR/MALE, Route: INHALATION, Dose: 0, 25, 100, 350 PPM 6 HR/D 5 D/WK FOR 2 YR (STUDY DURATION: 2 YR), Dose: 0, 25, 100, 350 PPM 6 HR/D 5 D/WK FOR 2 YR (STUDY DURATION: 2 YR)): inactive; negative
